# According to patent US20200354426A1 (MEDIMMUNE LIMITED, priority 2016, published 2020):
# Where two headings read alike, the source gives them in different places. Numbered stars: 1 amine (or outer) side, 2 acyl side, 3 side chain; on linkers, the order of the positions; unused ones are H or OH. Side chains are listed from the residue outwards. Peptide text beside a SMILES is read from it. * marks the point of attachment. γGlu = O=C(O)[C@H](CCC(=O)[*:2])N[*:1]; Palmitoyl = CCCCCCCCCCCCCCCC(=O)*
# Key:
# Human GlucR = molecular target: T1, Human GlucR (Homo sapiens, UniProt P47871); assay: cAMP activity assay in assay medium (assay 1); assay type: cell-based; conditions: assay medium
# T1 construct: expressed in transfected cells
# T1 sequence (P47871 26-477): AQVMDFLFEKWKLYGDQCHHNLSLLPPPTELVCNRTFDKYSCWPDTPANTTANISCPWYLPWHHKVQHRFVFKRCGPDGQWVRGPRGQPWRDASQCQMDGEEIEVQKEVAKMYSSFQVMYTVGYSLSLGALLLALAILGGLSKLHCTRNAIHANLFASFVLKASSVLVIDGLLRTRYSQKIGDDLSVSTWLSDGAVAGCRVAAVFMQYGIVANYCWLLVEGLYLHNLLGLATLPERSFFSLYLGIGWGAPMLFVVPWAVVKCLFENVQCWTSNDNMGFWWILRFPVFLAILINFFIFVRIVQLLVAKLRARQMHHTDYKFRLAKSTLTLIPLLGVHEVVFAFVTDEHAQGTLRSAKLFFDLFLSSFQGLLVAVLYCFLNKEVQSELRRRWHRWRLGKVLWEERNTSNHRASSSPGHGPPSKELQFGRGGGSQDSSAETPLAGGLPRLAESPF
# From the text: (§1) Biological Activity of Peptides in Cell-Based cAMP Activity Assay (Assay 1):
# (§2) All sample dilutions were made in duplicate.
# Human GLP1R = Human GLP1R (Homo sapiens, UniProt P43220); assay: cAMP activity assay in assay medium (assay 1); assay type: cell-based; set-up: expressed in transfected cells; conditions: assay medium
# Human GLP1R, sequence (P43220 24-463): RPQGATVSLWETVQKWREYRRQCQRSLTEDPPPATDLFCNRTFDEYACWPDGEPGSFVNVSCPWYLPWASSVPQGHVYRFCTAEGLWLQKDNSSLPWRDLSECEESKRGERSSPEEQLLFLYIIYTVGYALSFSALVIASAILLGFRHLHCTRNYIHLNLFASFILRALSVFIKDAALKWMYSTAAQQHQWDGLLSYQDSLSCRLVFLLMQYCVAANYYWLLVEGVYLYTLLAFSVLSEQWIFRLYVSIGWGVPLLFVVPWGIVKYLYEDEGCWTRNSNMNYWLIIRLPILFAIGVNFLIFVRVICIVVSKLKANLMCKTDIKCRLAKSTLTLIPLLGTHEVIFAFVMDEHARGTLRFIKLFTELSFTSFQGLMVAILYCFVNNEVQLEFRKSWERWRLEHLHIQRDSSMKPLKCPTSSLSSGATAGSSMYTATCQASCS
# From the text: as §1, §2
Compound,"EC50 (Human GlucR; Table 3, C-terminal acid peptides, read-out: Human GlucR EC50) [nM]","EC50 (Human GLP1R; Table 3, C-terminal acid peptides, read-out: Human GLP1R EC50) [nM]","EC50 (Human GLP1R; Table 4, read-out: hGLP1R EC50) [nM]","EC50 (Human GlucR; Table 4, read-out: hGlucR EC50) [nM]"
CCCCCCCCCCCCCCCC(=O)N[C@@H](CCC(=O)NCCCC[C@H](NC(=O)[C@H](CCCCN)NC(=O)[C@H](CO)NC(=O)[C@H](Cc1ccc(O)cc1)NC(=O)[C@H](CC(=O)O)NC(=O)[C@H](CO)NC(=O)[C@@H](NC(=O)[C@H](Cc1ccccc1)NC(=O)[C@@H](NC(=O)CNC(=O)[C@H](CCC(N)=O)NC(=O)[C@H](CO)NC(=O)[C@@H](N)Cc1c[nH]cn1)[C@@H](C)O)[C@@H](C)O)C(=O)N[C@@H](CC(C)C)C(=O)N[C@@H](CC(=O)O)C(=O)N[C@@H](CO)C(=O)N[C@@H](CCC(=O)O)C(=O)N[C@@H](CCCNC(=N)N)C(=O)N[C@@H](C)C(=O)N[C@@H](CCCNC(=N)N)C(=O)N[C@@H](CC(=O)O)C(=O)N[C@@H](Cc1ccccc1)C(=O)N[C@H](C(=O)N[C@@H](C)C(=O)N[C@@H](Cc1c[nH]c2ccccc12)C(=O)N[C@@H](CC(C)C)C(=O)N[C@H](C(=O)N[C@@H](C)C(=O)NCC(=O)NCC(=O)O)C(C)C)C(C)C)C(=O)O [Peptide G931] (H-HSQGTFTSDYSKK([γGlu-Palmitoyl])LDSERARDFVAWLVAGG-OH; N-terminus assumed),0.0178,0.13,,
CC(C)C[C@H](NC(=O)[C@H](Cc1ccc(O)cc1)NC(=O)[C@H](CCCCN)NC(=O)[C@H](CO)NC(=O)[C@H](Cc1ccc(O)cc1)NC(=O)[C@H](CC(=O)O)NC(=O)[C@H](CO)NC(=O)[C@@H](NC(=O)[C@H](Cc1ccccc1)NC(=O)[C@@H](NC(=O)CNC(=O)[C@H](CCC(N)=O)NC(=O)[C@H](CO)NC(=O)[C@@H](N)Cc1c[nH]cn1)[C@@H](C)O)[C@@H](C)O)C(=O)N[C@@H](CC(=O)O)C(=O)N[C@@H](CO)C(=O)N[C@@H](CCCNC(=N)N)C(=O)N[C@@H](CCCNC(=N)N)C(=O)N[C@@H](C)C(=O)N[C@@H](CCC(N)=O)C(=O)N[C@@H](CC(=O)O)C(=O)N[C@@H](Cc1ccccc1)C(=O)N[C@H](C(=O)N[C@@H](CCC(N)=O)C(=O)N[C@@H](Cc1c[nH]c2ccccc12)C(=O)N[C@@H](CC(C)C)C(=O)N[C@H](C(=O)N[C@@H](CCCNC(=N)N)C(=O)NCC(=O)NCC(=O)N[C@@H](CO)C(=O)N[C@@H](CO)C(=O)NCC(=O)NCC(=O)N[C@@H](CO)C(=O)N[C@@H](CO)C(=O)N[C@@H](CCCCN)C(N)=O)C(C)C)C(C)C [g317],,,2.63,
CCCCCCCCCCCCCCCC(=O)NCCCC[C@H](NC(=O)[C@H](CO)NC(=O)[C@H](CO)NC(=O)CNC(=O)CNC(=O)[C@H](CO)NC(=O)[C@H](CO)NC(=O)CNC(=O)CNC(=O)[C@H](CCCNC(=N)N)NC(=O)[C@@H](NC(=O)[C@H](CC(C)C)NC(=O)[C@H](Cc1c[nH]c2ccccc12)NC(=O)[C@H](CCC(N)=O)NC(=O)[C@@H](NC(=O)[C@H](Cc1ccccc1)NC(=O)[C@H](CC(=O)O)NC(=O)[C@H](CCC(N)=O)NC(=O)[C@H](C)NC(=O)[C@H](CCCNC(=N)N)NC(=O)[C@H](CCCNC(=N)N)NC(=O)[C@H](CO)NC(=O)[C@H](CC(=O)O)NC(=O)[C@H](CC(C)C)NC(=O)[C@H](Cc1ccc(O)cc1)NC(=O)[C@H](CCCCN)NC(=O)[C@H](CO)NC(=O)[C@H](Cc1ccc(O)cc1)NC(=O)[C@H](CC(=O)O)NC(=O)[C@H](CO)NC(=O)[C@@H](NC(=O)[C@H](Cc1ccccc1)NC(=O)[C@@H](NC(=O)CNC(=O)[C@H](CCC(N)=O)NC(=O)[C@H](CO)NC(=O)[C@@H](N)Cc1c[nH]cn1)[C@@H](C)O)[C@@H](C)O)C(C)C)C(C)C)C(N)=O [g318],,,1.14,9.04
CC(C)C[C@H](NC(=O)[C@H](Cc1ccc(O)cc1)NC(=O)[C@H](CCCCN)NC(=O)[C@H](CO)NC(=O)[C@H](Cc1ccc(O)cc1)NC(=O)[C@H](CC(=O)O)NC(=O)[C@H](CO)NC(=O)[C@@H](NC(=O)[C@H](Cc1ccccc1)NC(=O)[C@@H](NC(=O)CNC(=O)[C@H](CCC(N)=O)NC(=O)[C@H](CO)NC(=O)[C@@H](N)Cc1c[nH]cn1)[C@@H](C)O)[C@@H](C)O)C(=O)N[C@@H](CC(=O)O)C(=O)N[C@@H](CO)C(=O)N[C@@H](CCCNC(=N)N)C(=O)N[C@@H](CCCNC(=N)N)C(=O)N[C@@H](C)C(=O)N[C@@H](CCC(N)=O)C(=O)N[C@@H](CC(=O)O)C(=O)N[C@@H](Cc1ccccc1)C(=O)N[C@H](C(=O)N[C@@H](CCC(N)=O)C(=O)N[C@@H](Cc1c[nH]c2ccccc12)C(=O)N[C@@H](CC(C)C)C(=O)N[C@H](C(=O)N[C@@H](CCCNC(=N)N)C(=O)NCC(=O)NCC(=O)NCC(=O)NCC(=O)NCC(=O)NCC(=O)N[C@@H](CCCCN)C(N)=O)C(C)C)C(C)C [g325],,,,0.0103
CC(C)C[C@H](NC(=O)[C@H](Cc1ccc(O)cc1)NC(=O)[C@H](CCCCN)NC(=O)[C@H](CO)NC(=O)[C@H](Cc1ccc(O)cc1)NC(=O)[C@H](CC(=O)O)NC(=O)[C@H](CO)NC(=O)[C@@H](NC(=O)[C@H](Cc1ccccc1)NC(=O)[C@@H](NC(=O)CNC(=O)[C@H](CCC(N)=O)NC(=O)[C@H](CO)NC(=O)[C@@H](N)Cc1c[nH]cn1)[C@@H](C)O)[C@@H](C)O)C(=O)N[C@@H](CC(=O)O)C(=O)N[C@@H](CO)C(=O)N[C@@H](CCCNC(=N)N)C(=O)N[C@@H](CCCNC(=N)N)C(=O)N[C@@H](C)C(=O)N[C@@H](CCC(N)=O)C(=O)N[C@@H](CC(=O)O)C(=O)N[C@@H](Cc1ccccc1)C(=O)N[C@H](C(=O)N[C@@H](CCC(N)=O)C(=O)N[C@@H](Cc1c[nH]c2ccccc12)C(=O)N[C@@H](CC(C)C)C(=O)N[C@H](C(=O)N[C@@H](CCCNC(=N)N)C(=O)NCC(=O)NCC(=O)N[C@@H](CO)C(=O)NCC(=O)N[C@@H](CO)C(=O)NCC(=O)N[C@@H](CO)C(=O)NCC(N)=O)C(C)C)C(C)C [g402],,,0.0857,0.0596
CCCCCCCCCCCCCCCC(=O)NCCCCCC(=O)NCCCC[C@H](NC(=O)[C@H](CO)NC(=O)[C@H](CC(=O)O)NC(=O)[C@H](CC(C)C)NC(=O)[C@H](Cc1ccc(O)cc1)NC(=O)[C@H](CCC(=O)O)NC(=O)[C@H](CO)NC(=O)[C@H](Cc1ccc(O)cc1)NC(=O)[C@H](CC(=O)O)NC(=O)[C@H](CO)NC(=O)[C@@H](NC(=O)[C@H](Cc1ccccc1)NC(=O)[C@@H](NC(=O)CNC(=O)[C@H](CCC(N)=O)NC(=O)CNC(=O)[C@@H](N)Cc1c[nH]cn1)[C@@H](C)O)[C@@H](C)O)C(=O)N[C@@H](CCCNC(=N)N)C(=O)N[C@@H](C)C(=O)N[C@@H](CCCNC(=N)N)C(=O)N[C@@H](CC(=O)O)C(=O)N[C@@H](Cc1ccccc1)C(=O)N[C@H](C(=O)N[C@@H](CCC(=O)O)C(=O)N[C@@H](Cc1c[nH]c2ccccc12)C(=O)N[C@@H](CC(C)C)C(=O)N[C@@H](CCC(=O)O)C(=O)N[C@@H](CCCNC(=N)N)C(=O)NCC(=O)NCC(N)=O)C(C)C [g682],,,0.0143,0.195
CCCCCCCCCCCCCCCC(=O)N[C@@H](CCC(=O)NCCCC[C@H](NC(=O)[C@H](CO)NC(=O)[C@H](Cc1ccc(O)cc1)NC(=O)[C@H](CC(=O)O)NC(=O)[C@H](CO)NC(=O)[C@@H](NC(=O)[C@H](Cc1ccccc1)NC(=O)[C@@H](NC(=O)CNC(=O)[C@H](CCC(N)=O)NC(=O)CNC(=O)[C@@H](N)Cc1c[nH]cn1)[C@@H](C)O)[C@@H](C)O)C(=O)N[C@@H](Cc1ccc(O)cc1)C(=O)N[C@@H](CC(C)C)C(=O)N[C@@H](CC(=O)O)C(=O)N[C@@H](CO)C(=O)N[C@@H](CCC(=O)O)C(=O)N[C@@H](CCCNC(=N)N)C(=O)N[C@@H](C)C(=O)N[C@@H](CCC(N)=O)C(=O)N[C@@H](CC(=O)O)C(=O)N[C@@H](Cc1ccccc1)C(=O)N[C@H](C(=O)N[C@@H](CCC(N)=O)C(=O)N[C@@H](Cc1c[nH]c2ccccc12)C(=O)N[C@@H](CC(C)C)C(=O)N[C@@H](CCC(=O)O)C(=O)N[C@@H](CCCNC(=N)N)C(=O)NCC(=O)NCC(N)=O)C(C)C)C(=O)O [g701] (H-HGQGTFTSDYSK([γGlu-Palmitoyl])YLDSERAQDFVQWLERGG-NH2; N-terminus assumed),,,7.4,3.83
